From patent publication US10710994B2, “Oxadiazole transient receptor potential channel inhibitors” (Genentech, Inc., priority 2018, dated 2020) come the findings set out here.

Molecules are shown by their SMILES. Read-outs that look alike come from different tables or passages of the source.

By IC50 is commonly meant the concentration that inhibits the measured activity by half.

The assay concerns the target human TRPA1 channel (Homo sapiens (Human), UniProt O75762). The assay is described as follows: hTRPA1 CHO Ca2+ FLIPR Tetra assay: block of cinnamaldehyde induced calcium influx. In kind it is cell-based. Particulars: CHO cells expressing TRPA1, Hill coefficient fixed to 1.5. The procedure: CHO cells expressing TRPA1 were plated into 384-well plates, incubated overnight at 37° C., and loaded with BD calcium indicator dye for 1 hr at 37° C. followed by 15 minutes at room temperature. The assay buffer was Hank's Balanced Salt Solution (HBSS) containing 20 mM HEPES (pH readjusted to 7.4) along with 0.02% BSA.
Following dye load and plate cool down, compounds were added to the cells using FLIPR Tetra. Plates were then incubated with compounds for 10 minutes or 90 minutes at room temperature prior to adding agonist. Following this incubation, about an EC80 concentration of cinnamaldehyde […] was added to active the channels and block of cinnamaldehyde induced calcium influx was measured.
Fixing the Hill coefficient will generally reduce variability of the IC50 determination. The IC50 results were individually examined to make sure the MIN and MAX points were set correctly prior to validation of the results.

The mark [1] stands for this setting: hTRPA1 IC50 10 min, 10 minutes incubation with compound before cinnamaldehyde (about EC80).
The mark [2] stands for this setting: read-out: hTRPA1 IC50 10 min, 10 minutes incubation with compound before cinnamaldehyde (about EC80).
The mark [3] stands for this setting: read-out: hTRPA1 IC50 90 min, 90 minutes incubation with compound before cinnamaldehyde (about EC80).

human TRPA1 channel, sequence (O75762 whole entry): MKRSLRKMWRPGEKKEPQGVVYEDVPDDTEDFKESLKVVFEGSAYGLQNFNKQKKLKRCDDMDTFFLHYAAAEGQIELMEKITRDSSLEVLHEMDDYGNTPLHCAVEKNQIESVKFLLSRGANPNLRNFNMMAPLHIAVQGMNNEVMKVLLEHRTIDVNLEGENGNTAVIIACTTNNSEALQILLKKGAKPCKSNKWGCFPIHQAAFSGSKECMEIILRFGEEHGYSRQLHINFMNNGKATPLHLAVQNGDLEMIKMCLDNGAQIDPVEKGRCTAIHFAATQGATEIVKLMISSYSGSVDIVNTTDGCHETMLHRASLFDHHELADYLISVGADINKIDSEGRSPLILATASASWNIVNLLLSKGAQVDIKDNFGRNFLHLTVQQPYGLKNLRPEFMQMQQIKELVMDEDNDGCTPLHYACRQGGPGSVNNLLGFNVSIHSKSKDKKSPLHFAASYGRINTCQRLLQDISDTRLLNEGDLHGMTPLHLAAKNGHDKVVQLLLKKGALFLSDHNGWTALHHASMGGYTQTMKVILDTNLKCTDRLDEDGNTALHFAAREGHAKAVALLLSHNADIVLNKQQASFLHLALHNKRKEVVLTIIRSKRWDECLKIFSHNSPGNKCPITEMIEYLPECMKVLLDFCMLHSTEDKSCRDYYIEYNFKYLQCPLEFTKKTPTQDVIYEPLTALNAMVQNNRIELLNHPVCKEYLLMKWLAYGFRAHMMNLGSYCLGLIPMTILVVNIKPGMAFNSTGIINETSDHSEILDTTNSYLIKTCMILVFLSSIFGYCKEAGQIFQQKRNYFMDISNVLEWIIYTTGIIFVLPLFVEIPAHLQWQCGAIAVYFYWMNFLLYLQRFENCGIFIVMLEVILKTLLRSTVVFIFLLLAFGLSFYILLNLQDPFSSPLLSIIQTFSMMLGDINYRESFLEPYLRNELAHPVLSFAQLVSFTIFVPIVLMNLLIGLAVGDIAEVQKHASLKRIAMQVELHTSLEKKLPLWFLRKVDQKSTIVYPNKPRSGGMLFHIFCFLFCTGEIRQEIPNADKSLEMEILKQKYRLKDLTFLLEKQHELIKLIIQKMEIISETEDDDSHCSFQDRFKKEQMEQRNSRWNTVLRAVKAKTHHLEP

On to `Nc1nc2ncsc2c(=O)n1Cc1nc([C@@H]2CO[C@@H](c3ccc(Cl)cc3)C2)no1` (racemic) [Example 158, 5-amino-6-[[3-[rac-(3R,5R)-5-(4-chlorophenyl)tetrahydro-furan-3-yl]-1,2,4-oxadiazol-5-yl]methyl]thiazolo[4,5-d]pyrimidin-7-one], for which the IC50 was 5.73 nM under setting [1] and 1.4 nM (hTRPA1 IC50 90 min, 90 minutes incubation with compound before cinnamaldehyde (about EC80)).
Take `Cc1cnn2nc(N)n(Cc3nc([C@@H]4CO[C@@H](c5ccc(F)cc5)C4)no3)c(=O)c12` [Example 3, 2-amino-3-((3-((3R,5R)-5-(4-fluorophenyl)tetrahydrofuran-3-yl)-1,2,4-oxadiazol-5-yl)methyl)-5-methylpyrazolo[5,1-f][1,2,4]triazin-4(3H)-one]: the IC50 under setting [2] stood at 5.02 nM and the half-maximal inhibitory concentration (IC50) under setting [3] stood at 1.3 nM.
Turning to `Cn1cnc2[nH]c(=O)n(Cc3nc([C@@H]4CO[C@@H](c5ccc(Cl)cc5)C4)no3)c(=O)c21` [Example 7, 1-((3-((3R, 5R)-5-(4-chlorophenyl)-tetrahydrofuran-3-yl)-1,2,4-oxadiazol-5-yl)methyl)-7-methyl-1H-purine-2,6(3H,7H)-dione], the IC50 under setting [2] came out at 313 nM and the IC50 under setting [3] stood at 23 nM.
On to `Cc1nc2ncn(C)c2c(=O)n1Cc1nc([C@@H]2CO[C@@H](c3ccc(Cl)cc3)C2)no1` [Example 8, 1-((3-((3R,5R)-5-(4-chlorophenyl)tetrahydrofuran-3-yl)-1,2,4-oxadiazol-5-yl)methyl)-2,7-dimethyl-1H-purin-6(7H)-one], for which the 50% inhibitory concentration (IC50) under setting [1] was determined as 9.38 nM and the IC50 under setting [3] stood at 4.1 nM.
On to `Cn1c(=O)[nH]c2ncn(Cc3nc([C@@H]4CO[C@@H](c5ccc(Cl)cc5)C4)no3)c(=O)c21` [Example 9, 1-((3-((3R, 5R)-5-(4-chlorophenyl)-tetrahydrofuran-3-yl)-1,2,4-oxadiazol-5-yl)methyl)-7-methyl-1H-purine-6,8(7H,9H)-dione], for which the IC50 was 40.4 nM under setting [2] and 11 nM under setting [3].
In the same order, the values of `Cn1cnc2ncn(Cc3nc([C@@H]4CO[C@@H](c5cccc(F)c5)C4)no3)c(=O)c21` [Example 10, 1-((3-((3R,5R)-5-(3-fluorophenyl)tetra-hydrofuran-3-yl)-1,2,4-oxadiazol-5-yl)methyl)-7-methyl-1,7-dihydro-6H-purin-6-one] are 27.4 nM and 17 nM.
As to `O=c1c2cccnc2cnn1Cc1nc([C@@H]2CO[C@@H](c3ccc(F)cc3)C2)no1` [Example 11, 6-((3-((3R,5R)-5-(4-fluorophenyl)tetra-hydrofuran-3-yl)-1,2,4-oxadiazol-5-yl)methyl)pyrido[2,3-d]pyridazin-5(6H)-one], the IC50 under setting [2] was 16.6 nM and the IC50 under setting [3] worked out at 13 nM.
Regarding `Cn1nnc2ncn(Cc3nc([C@@H]4CO[C@@H](c5ccc(F)cc5)C4)no3)c(=O)c21` [Example 12, 6-((3-((3R,5R)-5-(4-fluorophenyl)tetra-hydrofuran-3-yl)-1,2,4-oxadiazol-5-yl)methyl)-1-methyl-1,6-dihydro-7H-[1,2,3]triazolo[4,5-d]pyrimidin-7-one], the IC50 came to 7.55 nM under setting [2] and 3.4 nM under setting [3].
As to `Cn1cnc2ncn(Cc3nc([C@@H]4CO[C@@H](c5ccccc5)C4)no3)c(=O)c21` [Example 13, 7-methyl-1-((3-((3R,5R)-5-phenyltetrahydrofuran-3-yl)-1,2,4-oxadiazol-5-yl)methyl)-1,7-dihydro-6H-purin-6-one], the IC50 reads like this: under setting [2], 82.3 nM; under setting [3], 33 nM.
Turning to `Cn1cnc2ncn(Cc3nc([C@@H]4CO[C@@H](c5ccccc5Cl)C4)no3)c(=O)c21` [Example 14, 1-((3-((3R,5R)-5-(2-chlorophenyl)tetra-hydrofuran-3-yl)-1,2,4-oxadiazol-5-yl)methyl)-7-methyl-1,7-dihydro-6H-purin-6-one], the 50% inhibitory concentration (IC50) by setting is: under setting [2], 335 nM; under setting [3], 160 nM.
In the same order, the values of `Cn1cnc2ncn(Cc3nc([C@@H]4CO[C@@H](c5ccccc5F)C4)no3)c(=O)c21` [Example 15, 1-((3-((3R,5R)-5-(2-fluorophenyl)tetrahydro-furan-3-yl)-1,2,4-oxadiazol-5-yl)methyl)-7-methyl-1,7-dihydro-6H-purin-6-one] are 127 nM and 59 nM.
Regarding `Cn1nnc2ncn(Cc3nc([C@@H]4CO[C@@H](c5ccc(Cl)cc5)C4)no3)c(=O)c21` [Example 16, 6-((3-((3R,5R)-5-(4-chlorophenyl)tetra-hydrofuran-3-yl)-1,2,4-oxadiazol-5-yl)methyl)-1-methyl-1,6-dihydro-7H-[1,2,3]triazolo[4,5-d]pyrimidin-7-one], the IC50 is, setting by setting: under setting [2], 4.9 nM; under setting [3], 2.7 nM.
In the same order, the values of `Cn1cnc2ncn(Cc3nc([C@@H]4CO[C@@H](c5cccc(Cl)c5)C4)no3)c(=O)c21` [Example 17, 1-((3-((3R,5R)-5-(3-chlorophenyl)tetrahydro-furan-3-yl)-1,2,4-oxadiazol-5-yl)methyl)-7-methyl-1,7-dihydro-6H-purin-6-one] are 29.5 nM and 14 nM.
In the same order, the values of `Cn1cnc2ncn(Cc3nc([C@@H]4CO[C@@H](c5ccc(F)c(F)c5)C4)no3)c(=O)c21` [Example 18, 1-((3-((3R,5R)-5-(3,4-difluorophenyl)tetra-hydrofuran-3-yl)-1,2,4-oxadiazol-5-yl)methyl)-7-methyl-1,7-dihydro-6H-purin-6-one] are 173 nM and 130 nM.
In the same order, the values of `Cn1cnc2ncn(Cc3nc([C@@H]4CO[C@@H](c5ccc(OC(F)F)cc5)C4)no3)c(=O)c21` [Example 19, 1-((3-((3R,5R)-5-(4-(difluoromethoxy)phenyl)tetrahydrofuran-3-yl)-1,2,4-oxadiazol-5-yl)methyl)-7-methyl-1,7-dihydro-6H-purin-6-one] are 150 nM and 110 nM.
As to `Cc1ccnc2ncn(Cc3nc([C@@H]4CO[C@@H](c5ccc(F)cc5)C4)no3)c(=O)c12` [Example 20, 3-((3-((3R,5R)-5-(4-fluorophenyl)tetrahydro-furan-3-yl)-1,2,4-oxadiazol-5-yl)methyl)-5-methylpyrido[2,3-d]pyrimidin-4(3H)-one], the IC50 came to 7.05 nM under setting [2] and 3.6 nM under setting [3].
For the molecule `Cn1cnc2ncn(Cc3nc([C@@H]4CO[C@@H](c5ccc(OC(F)(F)F)cc5)C4)no3)c(=O)c21` [Example 21, 7-methyl-1-((3-((3R,5R)-5-(4-(trifluoromethoxy)phenyl)tetrahydro-furan-3-yl)-1,2,4-oxadiazol-5-yl)methyl)-1,7-dihydro-6H-purin-6-one], the IC50 under setting [2] was found to be 98.5 nM and the 50% inhibitory concentration (IC50) under setting [3] came out at 67 nM.
Taken in the same sequence, the figures for `Cn1c(N)nc2ncn(Cc3nc([C@@H]4CO[C@@H](c5ccc(F)cc5)C4)no3)c(=O)c21` [Example 22, 8-amino-1-((3-((3R,5R)-5-(4-fluorophenyl)tetrahydro-furan-3-yl)-1,2,4-oxadiazol-5-yl)methyl)-7-methyl-1,7-dihydro-6H-purin-6-one] were 126 nM and 19 nM.
In the same order, the values of `Cn1cnc2c(C#N)nn(Cc3nc([C@@H]4CO[C@@H](c5ccc(Cl)cc5)C4)no3)c2c1=O` [Example 23, 1-((3-((3R,5R)-5-(4-chlorophenyl)tetrahydro-furan-3-yl)-1,2,4-oxadiazol-5-yl)methyl)-6-methyl-7-oxo-6,7-dihydro-1H-pyrazolo[4,3-d]pyrimidine-3-carbonitrile] are 45.7 nM and 24 nM.
In the same order, the values of `O=c1c2cccnc2cnn1Cc1nc([C@@H]2CO[C@@H](c3ccc(Cl)cc3)C2)no1` [Example 24, 6-((3-((3R,5R)-5-(4-chlorophenyl)tetrahydro-furan-3-yl)-1,2,4-oxadiazol-5-yl)methyl)pyrido[2,3-d]pyridazin-5(6H)-one] are 7.2 nM and 4.9 nM.
As to `O=c1c2cccnc2ncn1Cc1nc([C@@H]2CO[C@@H](c3ccc(Cl)cc3)C2)no1` [Example 25, 3-((3-((3R,5R)-5-(4-chlorophenyl)tetrahydro-furan-3-yl)-1,2,4-oxadiazol-5-yl)methyl)pyrido[2,3-d]pyrimidin-4(3H)-one], the IC50 under setting [2] was 6.55 nM and the IC50 under setting [3] came out at 5.7 nM.
With `Cn1c(N)nc2ncn(Cc3nc([C@@H]4CO[C@@H](c5ccc(Cl)cc5)C4)no3)c(=O)c21` [Example 26, 8-amino-1-((3-((3R,5R)-5-(4-chlorophenyl)tetrahydro-furan-3-yl)-1,2,4-oxadiazol-5-yl)methyl)-7-methyl-1,7-dihydro-6H-purin-6-one], the 50% inhibitory concentration (IC50) under setting [2] turned out to be 58.7 nM and the IC50 under setting [3] is 9.7 nM.
Turning to `Cc1ccc([C@H]2C[C@H](c3noc(Cn4cnc5ncn(C)c5c4=O)n3)CO2)cc1` [Example 27, 7-methyl-1-((3-((3R,5R)-5-(p-tolyl)tetrahydrofuran-3-yl)-1,2,4-oxadiazol-5-yl)methyl)-1,7-dihydro-6H-purin-6-one], the IC50 is 16.1 nM under setting [2] and 5.7 nM under setting [3].
